According to patent US20250073234A1, “COMBINATION THERAPIES INCLUDING PARP1 INHIBITORS” (Cornell University, priority 2022, published 2025):
Entries after “also recorded” stand apart in the source; their conditions may differ.

Legend:
[1] = tested on: p62 (SQSTM1) in WPMY-1 cells; experiment: p62/SQSTM1 expression in WPMY-1 stromal fibroblasts (immunoblot, qPCR); format: cell-based, human
Description: To knock out PARP-1 in WPMY-1 cells, single-guide RNA sequences targeting PARP-1 exon2 were purchased from Synthego and transduced into WPMY-1 cells with recombinant Streptococcus pyogenes Cas9 protein (Truecut Cas9 Protein v2, Thermo), using the Neon Transfection System 1 (Invitrogen) following the manufacturer's protocol and single clones were expanded and screened by protein immunoblotting. To perform AP1-A binding site editing in the SQSTM promoter in WPMY-1 cells, single-guide RNA sequences targeting the human AP1-A binding site (Synthego) was transduced into cells with a Cas9 protein and a single-stranded donor oligonucleotide (ssODN, IDT) using Neon Electroporation System. Single clones were expanded and screened for AP1-A editing by Sanger sequencing. A point mutation to disrupt the API enhancer element in the p62 promoter was introduced by Site Directed Mutagenesis (Stratagene). Knockdown of MCT1, MCT4, FOS, PARP1, PARP2, CD38, ATG5, and SIRT1-7 genes in WPMY-1 cells were achieved by siRNA transfection using Lipofectamine RNAiMAX Transfection Reagent (Invitrogen). Transient overexpression was achieved by transfection using X-tremeGENE HP transfection reagent (Roche). Transfected cells were examined 48 hours after transfection. Establishing stably GFP or RFP expressing cells was achieved by lentivirus-mediated transduction. Lentivirus were produced in HEK293T cells using X-tremeGENE HP transfection reagent (Roche). Virus-containing supernatants were collected 48, 72 and 96 hours after transfection, filtered to eliminate cells, and supplemented with 8 μg/ml polybrene. Cells were infected with three rounds of viral supernatants and selected with puromycin (3 μg/ml). For autophagy or proteasome inhibition, WPMY-1 cells were treated for 12 hours with 100 nM bafilomycin Al or 12 hours with 20 μM of MG132, respectively, or vehicle (DMSO). […] For MCT1 inhibition, WPMY-1 cells were treated for 48 hours with 10 μM of AZD3965. For cJUN inhibition, WPMY-1 cells were treated for 48 hours with 10 μM of SP600125. For calpains and caspases inhibition, WPMY-1 cells were treated for 48 hours with 1-20 μM of Calpeptin (Tocris) or z-VAD-FMK (Tocris), respectively. For protein synthesis inhibition, WPMY-1 cells were treated with 50 μg/ml of cycloheximide (Sigma). Conditioned media (CM) was generated by collecting supernatant on day 3. CM was transferred to a 15 ml BD Falcon tube and centrifuged at 1300 rpm for 10 minutes. The supernatant was sterile filtered using a […] (Millex-GV) with a 10 ml syringe barrel. The samples were stored at […] for future experiments. Fractionation of the CM was achieved using Amicon Ultra centrifugal filters (3KUltracel, Millipore). The supernatant was centrifuged at 4000 rpm for 1 hour. The supernatant fraction that was >3 kDa remained above the filter and that which was <3 kDa passed through to the lower chamber. The >3-kDa fraction was resuspended in DMEM to the pre-filtration volume.

PC3 cells = experiment: Click-iT EdU proliferation of PC3 cells treated with CM from WPMY-1 cells; format: cell-based, human; settings: Olaparib 10 μM + PEGPH20 2.5 μg/ml or CM incubation with Galunisertib 10 μM
Description: WPMY-1 cells were cultured in DMEN containing 10% FBS (basal conditions) or 10% charcoal stripped FBS (ADT conditions), then the cells were treated with vehicle (DMSO), Olaparib 10 μM, Olaparib 10 μM+PEGPH20 2.5 μg/ml for 96 hours, refreshing media and stimuli at 48 hours, conditioned media (CM) was generated by collecting supernatant on day 4. PC3 cells were seeded in a black-walled well (Thermo Fisher) and serum starved overnight. CM from WPMY-1 cells was added to PC3 for 24 h. PC3 were exposed to EdU incorporation for the last 2 hours. Proliferating cells were detected using Click-iT EdU Alexa fluor 488 (Thermo Fisher) following the manufacturer's instructions. Pictures were taken using EVOS M5000 Imaging System and EdU positive were measured using Fiji (Schindelin et al., 2012).

[2] = tested on: BRCA deficient breast tumors; experiment: GSEA of RNAseq data of BRCA deficient breast tumors (GSE125206)
Description: (§1) For RNA-Seq, sequencing Fastq files were uploaded to BaseSpace and processed with RNASeq Alignment App (Illumina) to obtain raw reads counts for each gene. For 3′RNA-Seq, read data was processed with the BlueBee Genomics Platform (BlueBee, San Mateo, CA). GenePattern (https://genepattern.broadinstitute.org/gp/pages/index.jsf) was used to collapse gene matrix files (CollapseDataset module) or to assess the statistical significance of differential gene expression (ComparativeMarkerSelection module for microarray data and DESeq2 module for RNA-seq data). […] For ATACSeq, FASTQ files from ATAC-seq reads were aligned to UCSC mm10 with Bowtie2 (bowtie2-very-sensitive-x mm10-1 FILE_merged_R1.fastq-2 FILE_merged_R2.fastq-X 1000-p 12 | samtools view-u-| samtools sort->FILE.bam). […] For motif enrichment analysis in the differential peaks between vehicle and Olaparib-treated cells, p-values were calculated using findMotifsGenome.pl with—size given,—len 6,8,10,12 and—mask program of HOMER v4.10.3. […] For ATACSeq, FASTQ files from ATAC-seq reads were aligned to UCSC mm10 with Bowtie2 (bowtie2-very-sensitive-x mm10-1 FILE_merged_R1.fastq-2 FILE_merged_R2.fastq-X 1000-p 12 | samtools view-u-I samtools sort->FILE.bam). […] For scRNA-seq, raw sequence reads were quality-checked using FastQC software. […]

[3] = tested on: human ovarian cancer PDXs; settings: Niraparib vs vehicle, GSE163854
Description: as §1

WPMY-1 cells = experiment: qPCR of CAF / stromal activation markers in WPMY-1 cells; format: cell-based, human; settings: co-treatment with Olaparib
Description: To knock out PARP-1 in WPMY-1 cells, single-guide RNA sequences targeting PARP-1 exon2 were purchased from Synthego and transduced into WPMY-1 cells with recombinant Streptococcus pyogenes Cas9 protein (Truecut Cas9 Protein v2, Thermo), using the Neon Transfection System 1 (Invitrogen) following the manufacturer's protocol and single clones were expanded and screened by protein immunoblotting. To perform AP1-A binding site editing in the SQSTM promoter in WPMY-1 cells, single-guide RNA sequences targeting the human AP1-A binding site (Synthego) was transduced into cells with a Cas9 protein and a single-stranded donor oligonucleotide (ssODN, IDT) using Neon Electroporation System. Single clones were expanded and screened for AP1-A editing by Sanger sequencing. A point mutation to disrupt the API enhancer element in the p62 promoter was introduced by Site Directed Mutagenesis (Stratagene). Knockdown of MCT1, MCT4, FOS, PARP1, PARP2, CD38, ATG5, and SIRT1-7 genes in WPMY-1 cells were achieved by siRNA transfection using Lipofectamine RNAiMAX Transfection Reagent (Invitrogen). Transient overexpression was achieved by transfection using X-tremeGENE HP transfection reagent (Roche). Transfected cells were examined 48 hours after transfection. Establishing stably GFP or RFP expressing cells was achieved by lentivirus-mediated transduction. Lentivirus were produced in HEK293T cells using X-tremeGENE HP transfection reagent (Roche). Virus-containing supernatants were collected 48, 72 and 96 hours after transfection, filtered to eliminate cells, and supplemented with 8 μg/ml polybrene. Cells were infected with three rounds of viral supernatants and selected with puromycin (3 μg/ml). For autophagy or proteasome inhibition, WPMY-1 cells were treated for 12 hours with 100 nM bafilomycin Al or 12 hours with 20 μM of MG132, respectively, or vehicle (DMSO). For PARP1 inhibition, WPMY-1 cells were treated with PJ34 (2 days) or Olaparib (4 days) at the doses indicated in each experiment. For MCT1 inhibition, WPMY-1 cells were treated for 48 hours with 10 μM of AZD3965. For cJUN inhibition, WPMY-1 cells were treated for 48 hours with 10 μM of SP600125. For calpains and caspases inhibition, WPMY-1 cells were treated for 48 hours with 1-20 μM of Calpeptin (Tocris) or z-VAD-FMK (Tocris), respectively. For protein synthesis inhibition, WPMY-1 cells were treated with 50 μg/ml of cycloheximide (Sigma). Conditioned media (CM) was generated by collecting supernatant on day 3. CM was transferred to a 15 ml BD Falcon tube and centrifuged at 1300 rpm for 10 minutes. The supernatant was sterile filtered using a […] (Millex-GV) with a 10 ml syringe barrel. The samples were stored at […] for future experiments. Fractionation of the CM was achieved using Amicon Ultra centrifugal filters (3KUltracel, Millipore). The supernatant was centrifuged at 4000 rpm for 1 hour. The supernatant fraction that was >3 kDa remained above the filter and that which was <3 kDa passed through to the lower chamber. The >3-kDa fraction was resuspended in DMEM to the pre-filtration volume.
Total RNA from mouse tissues, cells and cultured organoids was extracted using the TRIZOL reagent (Invitrogen) and the RNeasy Mini Kit (QIAGEN), followed by DNase treatment. After quantification using a Nanodrop 1000 spectrophotometer (Thermo Scientific), RNA was either processed for RNA-seq or reverse-transcribed using random primers and MultiScribe Reverse Transcriptase (Applied Biosystems). Gene expression was analyzed by amplifying 20 ng of the complementary DNA using the CFX96 Real Time PCR Detection System with SYBR Green Master Mix (BioRad) and primers described in Table S1. The amplification parameters were set at 95° C. for 30 seconds, 58° C. for 30 seconds, and 72° C. for 30 seconds (40 cycles total). Gene expression values for each sample were normalized to the 18s RNA.

Question: Which “p62 expression (protein, SQSTM1 mRNA)” value ([1]; WPMY-1 cells, PJ34 24 h, Olaparib 48 h) does the source give for `CN(C)CC(=O)Nc1ccc2[nH]c(=O)c3ccccc3c2c1` [PJ34] here?
Answer: reduced the expression of p62 in a dose-dependent manner

Question: For `Cc1[nH]nc(C(F)(F)F)c1Cc1sc2c(c1C(=O)N1C[C@](C)(O)CO1)c(=O)n(C)c(=O)n2C(C)C` [AZD3965], which “p62 downregulation induced by CM from PC3 cells” value ([1]; WPMY-1 cells, MCT1 inhibitor 10 μM, PC3 CM 48 h) is on record?
Answer: impaired p62 downregulation in WPMY-1 cells treated with PC3 CM

Question: With `Cc1cccc(-c2nn3c(c2-c2ccnc4ccc(C(N)=O)cc24)CCC3)n1` [Galunisertib] as the compound, how does the “Olaparib-induced proliferation (EdU)” value (PC3 cells) read?
Answer: completely abolished the stromal proliferation induced by Olaparib

Question: Which results are given for `Cn1ncnc1[C@H]1c2n[nH]c(=O)c3cc(F)cc(c23)N[C@@H]1c1ccc(F)cc1` [Talazoparib]?
Answer: GSEA inflammatory signaling signatures ([2]; Talazoparib vs saline): increased inflammatory related signatures; GSEA signatures of stromal activation ([2]; Talazoparib vs vehicle): significant enrichment of signatures of stromal activation; also recorded: showing stromal activation

Question: How did the “GSEA inflammatory signaling signatures” value [3] turn out when `NC(=O)c1cccc2cn(-c3ccc([C@@H]4CCCNC4)cc3)nc12` [Niraparib] was run?
Answer: increased inflammatory related signatures

Question: And the “GSEA signatures of stromal activation” value [3]?
Answer: showing stromal activation

Question: `CNC(=O)c1ccccc1Oc1nc(Nc2cc(OC)c(OC)c(OC)c2)ncc1Br` [SBI-0202965] was tested. Which “Olaparib-induced activation of stroma (qPCR of CAF marker ACTA2)” value (WPMY-1 cells) did it give?
Answer: reverted the Olaparib-induced activation of stroma in a dose dependent manner; also recorded: reverts the stroma activation induced by Olaparib

Question: `NC(=O)c1ccc[n+]([C@@H]2O[C@H](CO)[C@@H](O)[C@H]2O)c1` [NR, nicotinamide riboside] was tested. Which “rescue of lactate-induced reduction in p62” value ([1]; lactate-treated WPMY-1 cells, 48 h, NAD 150 μM, NR 200 μM) did it give?
Answer: completely rescued the lactate-induced reduction in p62
